According to US20180280364A1, “PHARMACEUTICAL COMPOSITIONS OF SODIUM PICOSULFATE, MAGNESIUM OXIDE AND CITRIC ACID” (Hetero Labs Limited, priority 2017, published 2018):

Test: Compatibility study of sodium picosulfate with citric acid
Type: physicochemical
Settings: produced a wet mass with high known impurities
Excerpt: As sodium picosulfate is having sensitivity towards an acidic nature ingredient, there is a need to formulate the composition of sodium picosulfate not in direct contact with the citric acid.

O=S(=O)(O)Oc1ccc(C(c2ccc(OS(=O)(=O)O)cc2)c2ccccn2)cc1 [sodium picosulfate]
Compatibility / stability with citric acid: not compatible or stable with citric acid physically and chemically
